Results as given in patent US9265747B2, “Platinum (IV) complexes for use in dual mode pharmaceutical therapy” (Massachusetts Institute of Technology, priority 2008, dated 2016).
Entries after “also recorded” stand apart in the source; their conditions may differ.

Tests used:
[1] = tested on: A549, human lung carcinoma; test: MTT assay, A549 cells; format: cell-based; conditions: 72 hours
Protocol: [The procedure below names another cell line; the source lists this cell line under the same test.] (§1) MTT Assay. Cytotoxic behavior of compound 1, DCA and cis-DDP were evaluated using the MTT assay. Solutions of the platinum complexes were freshly prepared in sterile PBS before use and quantitated by atomic absorption spectroscopy. Cells were seeded on a 96 well plate (1000 cells per well for NTera-2, U2OS, HeLa; 1400 per well for normal fibriblast; 500 per well for 7B, 10B, 175F and 150×2) in 100 μL DMEM media and incubated for 24 hours. The cells were then treated with compound 1, DCA or cis-DDP, separately at varying concentrations and incubated for 72 hours at 37° C. The cells were then treated with 20 μL of 3-(4,5-dimethylthiazol-2-yl)-2,5-diphenyltetrazolium bromide (MTT) (5 mg/mL in PBS) and incubated for 5 h. The medium was removed, the cells were lysed by adding 100 μl, of DMSO, and the absorbance of the purple formazan was recorded at 550 nm using a BioTek Synergy HT multi-detection microplate plate reader. Each well was performed in triplicate in three independent experiments for each cell line.

A549 = test: Annexin-V flow cytometry, A549 cells; format: cell-based, human; conditions: 10 and 20 μM, 72 h
Protocol: (§2) In order to quantify mitaplatin-induced apoptosis in cancer cells, an Annexin-V was performed and analyzed using flow cytometry. With this analysis, the percentage of apoptotic cells found was determined at 72 h after exposure of mitaplatin and cisplatin.

[2] = tested on: normal fibroblasts and cancerous NTera-2 cells; test: Co-culture of normal fibroblasts and cancerous NTera-2 cells; format: cell-based, human
Excerpt: Cisplatin kills both NTera-2 and normal fibroblast cells

U2OS, human osteosarcoma = test: MTT assay, U2OS cells; format: cell-based; conditions: 72 hours
Protocol: (§3) Cell Line and Cell Culture. Healthy normal fibroblast GM61869, human cancer NTera-2, human cervical cancer HeLa, human osteosarcoma cell line U2OS were obtained from the ATCC. Cells were incubated at 37° C. in 5% CO2 and grown in DMEM medium supplemented with 10% fetal bovine serum and 1% penicillin/streptomycin. Cells were passed every 3 to 4 days and restarted from the frozen stock upon reaching pass number 20.
as §1

[3] = tested on: healthy normal fibroblast cells; test: JC-1 mitochondrial membrane potential assay, normal fibroblasts; format: cell-based; conditions: 100 μM, 4 h and 48 h
Excerpt: (§4) The following describes a mitochondrial membrane potential assay using compound 1. JC-1 Assay: Mitochondrial attack is associated with a drop in mitochondrial transmembrane potential (Δψm). For this reason Δψm, is an important parameter of mitochondrial function and has been used as an indicator for mitochondrial death. Variation in Δψm can be studied by evaluating the changes in fluorescence intensity of cells stained with lipophilic cationic dye, 5,5′,6,6′-tetrachloro-1,1′,3,3′-tetraethylbenzimidazolylcarbocyanine iodide (JC-1). It can selectively enter mitochondria and reversibly change color from green to red as the membrane potential increases.
(§5) The negative charge established by the mitochondrial membrane potential allows the lipophilic dye, bearing a delocalized positive charge, to enter the mitochondria where it accumulates. When the critical concentration is exceeded, J-aggregates form, which becomes red. In apoptotic cells, the mitochondrial membrane potential collapses, and the JC-1 can not accumulate within the mitochondria. In these cells, JC-1 remains in the cytoplasm in a green fluorescent monomeric form. Apoptotic cells, showing primarily green fluorescence, are easily differentiated from the healthy cells which show mainly red fluorescence.
(§6) JC-1 Assay. Normal and NTera-2 cells were cultured on cover slips to a density of 1×10^6 cells/mL and incubated overnight at 37° C. […]

U2OS = test: Annexin-V flow cytometry, U2OS cells; format: cell-based, human; conditions: 10 and 20 μM, 72 h
Protocol: as §2

[4] = tested on: human lung cancer A549 cells and normal human lung fibroblasts MRC-5; test: LIVE/DEAD viability assay in co-culture; format: cell-based; conditions: co-culture A549 and MRC-5, exposure for 24 h
Protocol: Studies were also conducted on a co-culture of human lung cancer A549 cells and normal human lung fibroblasts MRC-5. […] The assay allowed for the simultaneous determination of live and dead cells in a co-culture by labeling live cells with calcein AM dye, which fluoresces only when cleaved by intracellular esterase enzymes, and ethidium […] (EthD-1), which only enters dead cells with disrupted cell membranes. […] Following mitaplatin or cisplatin exposure for 24 h, cells were stained with calcein AM (green fluorescence) and ethidium homodimer-1 (red fluorescence) to differentiate between live and dead cells, respectively.

[5] = tested on: A2780, human ovarian carcinoma; test: MTT assay, A2780 cells; format: cell-based; conditions: A2780 cisplatin sensitive cells, 72 h
Protocol: A more negative membrane potential might promote translocation of the active, cationic form of cisplatin from the cytoplasm to mitochondria, thus diminishing platination of nuclear DNA. […] Thus, a pair of cisplatin sensitive A2780 and resistant A2780/CP70 ovarian cancer cells were studied (Table 1 and FIG. 10). […] (▴) with (A) cisplatin sensitive A2780 cells and (B) cisplatin resistant A2780/CP70 cells, after 72 h as determined by the MTT assay. The controls were cisplatin and c,c,t-[Pt(NH3)2Cl2(O2CCH3)2]. […] Results for the A2780/CP70 cells indicate that DCA plays a role, in this embodiment, in making cisplatin-resistant cells susceptible towards mitaplatin treatment.
as §1

[6] = tested on: MCF-7, human breast adenocarcinoma; test: MTT assay, MCF-7 cells; format: cell-based; conditions: 72 hours
Protocol: [The procedure below names another cell line; the source lists this cell line under the same test.] as §1

normal MRC-5 cells = test: Annexin-V flow cytometry, normal MRC-5 cells; format: cell-based, human; conditions: 72 h, cisplatin at 10 μM
Protocol: as §2

[7] = tested on: healthy normal fibroblast cells; test: TMRM mitochondrial membrane potential assay, normal fibroblasts; format: cell-based; conditions: listed as compound 1
Protocol: (§7) TMRM Assay. Analysis of mitochondrial membrane potential (Δψm) was carried out by using tetramethyl rhodamine methyl ester (TMRM). A similar procedure as mentioned above for the JC-1 assay was followed. Before fixing the cells, they were treated with 2 μM of TMRM for 30 min at 37° C.

HeLa = test: Annexin-V flow cytometry, HeLa cells; format: cell-based, human; conditions: 10 and 20 μM, 72 h
Protocol: as §2

[8] = tested on: HeLa, human cervical cancer; test: MTT assay, HeLa cells; format: cell-based; conditions: 72 hours
Protocol: as §3, §1

NTera-2 cells = test: TMRM mitochondrial membrane potential assay, NTera-2 cells; format: cell-based, human; conditions: listed as compound 1
Protocol: as §7

[9] = tested on: human cancer NTera-2 cells; test: JC-1 mitochondrial membrane potential assay, NTera-2 cells; format: cell-based; conditions: 100 μM, 4 h and 48 h
Excerpt: as §4, §5, §6

[10] = tested on: NTera-2, human testicular cancer; test: MTT assay, NTera-2 cells; format: cell-based; conditions: 72 hours
Protocol: as §3, §1

Q: What does the source list for `[NH2][Pt]([NH2])([Cl])([Cl])([O]C(=O)C(Cl)Cl)[O]C(=O)C(Cl)Cl` [Mitaplatin, c,c,t-[Pt(NH3)2Cl2(O2CCHCl2)2]]?
A: IC50 [1]: 14 µM; apoptosis (Annexin-V) (A549): Apoptosis was detected; cell killing in co-culture [2]: selectively kills the cancer cells; IC50 (U2OS, human osteosarcoma): 6.4 µM; effect on mitochondria (JC-1 fluorescence) [3]: had no effect; apoptosis (Annexin-V) (U2OS): Apoptosis was detected; cell death in co-culture, LIVE/DEAD staining [4]: selectively induced cell death in human cancer A549 cells, but not in normal MRC-5 cells; IC50 [5]: 1.1 µM; IC50 [6]: 18 µM; apoptosis (Annexin-V) (normal MRC-5 cells): did not show any detectable apoptosis; mitochondrial membrane potential (Δψm), TMRM [7]: had no effect; also recorded: does not change the Δψm; apoptosis (Annexin-V) (HeLa): Apoptosis was detected; IC50 [8]: 2 µM; mitochondrial membrane potential (Δψm), TMRM (NTera-2 cells): significantly depolarizes; also recorded: reverses the hyperpolarization; effect on mitochondria (JC-1 fluorescence) [9]: attacks the mitochondria; IC50 [10]: 0.051 µM
